# In US20220257552A1, “METHODS OF PRESCREENING AND TREATING BREAST CANCERS WITH SELECTIVE ANDROGEN RECEPTOR MODULATORS” (priority 2021, published 2022):
# Key:
# MCF-7-AR tumors = assay: Affymetrix microarray of MCF-7-AR tumors; format: in vivo, mice; conditions: Table 9
# Protocol: Microarray Analysis was performed on RNA from MDA-MB-231-AR and MCF-7-AR tumors in order to identify and compare changes in gene expression in ER-negative (MDA-MB-231-AR; triple negative) an ER-positive (MCF-7-AR; triple positive) breast cancer tumors treated with a compound of Formula VIII (30 mg/kg/day p.o. for 4 weeks). Affymetrix analysis of the xenografts was done on pooled samples of the xenografts. The analysis included ˜70,000 sequences with ˜30,000 genes and variations thereof represented, as well as microRNA's. RNA was isolated and expression of genes was evaluated using microarray (Affymetrix Human Gene ST 2.0 array). Expression of genes in compound of Formula VIII-treated samples was compared with the expression in vehicle-treated samples.
# BR-0001 tumors = assay: Microarray and AR ChIP-Seq of BR-0001 tumors; format: in vivo, mice
# Protocol: Chromatin Immunoprecipitation Assay (ChIP). Proteins were cross-linked by incubation with 1% formaldehyde (final concentration) at 37° C. for 10 min. Tumors were homogenized using a probe hand-held homogenizer. The cells were washed with 1×PBS twice, scraped in 1 mL of PBS containing protease inhibitors ([[…] each of aprotinin, leupeptin, antipain, benzamidine HCl, and pepstatin/mL], 0.2 mM phenylmethylsulfonyl fluoride, and 1 mM sodium vanadate), pelleted, and resuspended in SDS lysis buffer (1% SDS, 10 mM EDTA, 50 mM Tris-HCl [pH 8.1]).
# After lysis on ice for 10 min, the cell extract was sonicated (Branson sonifier 250) in a cold room eight times for 10 s each at constant duty cycle, with an output of 3 and with incubation on ice after every sonication. The debris was pelleted at 13,000 rpm for 10 min at 4° C., and the supernatant was diluted 10-fold with ChIP dilution buffer (0.01% SDS, 1.1% Triton X-100, 1.2 mM EDTA, 16.7 mM Tris HCl [pH 8.1], 167 mM NaCl). The proteins were precleared with 50 μL of 1:1 protein A-Sepharose beads in TE. […]
# In the gene expression study described above, RNA was isolated from the BR-0001 TNBC tumors and the expression of genes in the entire genome was measured by microarray (Affymetrix, ST2.0 array). […]
# [1] = Phase 1 multiple ascending dose study G100402; format: in vivo, human
# Text: These include: 1. Protocol G100401, a Phase 1 single ascending dose study in 96 healthy, young, male volunteers; 2. Protocol G100402, a Phase 1 multiple ascending dose study in 50 healthy, young, male volunteers, and 23 elderly male volunteers with truncal obesity; 3. Protocol G100503, a Phase 1 single dose pharmacokinetic study to assess the effect of a dosage regimen that simulates a sustained release formulation to an immediate release formulation in 18 healthy, young male volunteers and 18 postmenopausal women; 4. Protocol G100506, a Phase 1 single dose pharmacokinetic study to assess the relative bioavailability of a 3 mg hard shell capsule formulation to be used during continued clinical development and to assess the effect of food on the pharmacokinetics of the 3 mg softgel formulation in 27 healthy, young, male volunteers; 5. Protocol 006, a Phase 1 single dose and multiple dose pharmacokinetic study in 24 postmenopausal, Japanese women; 6. Protocol G200501, a Phase 2 study in 60 postmenopausal women and 60 elderly men to assess lean body mass and physical function; 7. Protocol 003, a Phase 1b study in 44 postmenopausal women; 8. Protocol G200502, a Phase 2b study in 159 men and postmenopausal women with cancer to assess lean body mass and physical function; 9.
# Both 10 mg and 30 mg daily doses were evaluated in Protocol G100402 for up to 14 days. […]
Compound,AHR expression (MCF-7-AR tumors),CDT1 expression (MCF-7-AR tumors),Catalase expression (MCF-7-AR tumors),EHMT1 expression (MCF-7-AR tumors),ER-α expression (MCF-7-AR tumors),ERCC2 expression (MCF-7-AR tumors),FACGD2 expression (MCF-7-AR tumors),IRS1 expression (MCF-7-AR tumors),KLK3 expression (MCF-7-AR tumors),MTR expression (MCF-7-AR tumors),NPAS2 expression (MCF-7-AR tumors),PON2 expression (MCF-7-AR tumors),PR expression (MCF-7-AR tumors),TIMP3 expression (MCF-7-AR tumors),XRCC1 expression (MCF-7-AR tumors),"AR-occupied promoters with the gene up-regulated (BR-0001 tumors; mouse, in vivo)",promoters to which AR was recruited (BR-0001 tumors; −5 kb to +1 kb),subjects with ALT increases above two times the ULN ([1]; 30 mg dose group),"tolerability ([1]; daily doses up to 30 mg, healthy male volunteers)"
"C[C@](O)(COc1ccc(C#N)cc1)C(=O)Nc1ccc(C#N)c(Cl)c1 [Formula VIII, (S)—N-(3-chloro-4-cyanophenyl)-3-(4-cyanophenoxy)-2-hydroxy-2-methylpropanamide]",Increased,Decreased,Increased,Increased,Decreased,Decreased,Decreased,Decreased,Increased,Decreased,Increased,Increased,Decreased,Increased,Decreased,–,–,–,–
"C[C@](O)(COc1ccc(C#N)cc1)C(=O)Nc1ccc(C#N)c(C(F)(F)F)c1 [Formula IX, (S)—N-(4-Cyano-3-(trifluoromethyl)phenyl)-3-(4-cyanophenoxy)-2-hydroxy-2-methylpropanamide]",–,–,–,–,–,–,–,–,–,–,–,–,–,–,–,20%,176 promoters,six,well tolerated
